Measurements from patent US6506772B1, “Substituted [1,2,4]triazolo[1,5a]pyridine derivatives with activity as adenosine receptor ligands” (Hoffmann-La Roche Inc., priority 2000, dated 2003).

How the values were obtained:
[1] = target: T1, human adenosine A2A receptor (Homo sapiens, UniProt P29274); test: Human adenosine A2A receptor [3H]-SCH-58261 binding assay; settings: for Ki: affinity to human adenosine A2A receptor, read-out: Ki HA2A; for selectivity (A1/A2a): calculated ratio of the affinity to the HA1 receptor to the HA2a receptor
T1 construct: expressed in transfected cells; host or cells: CHO cells, Semliki Forest virus expression system; membrane preparation
T1 sequence (P29274 whole entry): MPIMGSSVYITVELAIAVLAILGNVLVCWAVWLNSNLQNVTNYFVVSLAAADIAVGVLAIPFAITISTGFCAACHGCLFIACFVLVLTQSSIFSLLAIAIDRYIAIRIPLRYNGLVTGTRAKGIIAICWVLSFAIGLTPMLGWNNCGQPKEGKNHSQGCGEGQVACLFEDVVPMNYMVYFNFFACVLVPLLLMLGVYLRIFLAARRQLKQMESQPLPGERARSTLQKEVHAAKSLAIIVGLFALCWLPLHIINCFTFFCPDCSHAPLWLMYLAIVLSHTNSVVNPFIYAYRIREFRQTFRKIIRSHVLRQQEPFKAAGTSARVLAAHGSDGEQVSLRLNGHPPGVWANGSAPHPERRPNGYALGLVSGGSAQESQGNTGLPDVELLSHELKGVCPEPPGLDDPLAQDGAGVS

HA1 adenosine receptor = target: T2, HA1 adenosine receptor (Homo sapiens, UniProt P30542); test: Human adenosine A1 receptor affinity (Ki hA1); format: binding; settings: affinity to human adenosine A1 receptor
T2 sequence (P30542 1-326): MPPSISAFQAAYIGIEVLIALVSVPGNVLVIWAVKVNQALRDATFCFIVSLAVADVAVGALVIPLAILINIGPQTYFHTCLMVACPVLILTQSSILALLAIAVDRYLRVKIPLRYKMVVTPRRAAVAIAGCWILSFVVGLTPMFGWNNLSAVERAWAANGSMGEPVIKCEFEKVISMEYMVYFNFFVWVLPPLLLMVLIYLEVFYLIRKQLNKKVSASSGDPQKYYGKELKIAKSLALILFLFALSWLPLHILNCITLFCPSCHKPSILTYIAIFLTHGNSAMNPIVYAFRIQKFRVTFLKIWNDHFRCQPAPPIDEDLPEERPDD

| Ki [1] | selectivity (A1/A2a) [1] | Ki (HA1 adenosine receptor) | Structure (SMILES) |
| --- | --- | --- | --- |
| 121 nM | 9.0 | 1090 nM | CCN(C(=O)c1cc(N)n2nc(-c3sccc3C)nc2c1)C(C)C [Example 143, 5-Amino-2-(3-methyl-thiophen-2-yl)-[1,2,4]triazolo[1,5-a]pyridine-7-carboxylic acid ethyl-isopropyl-amide] |
| 63.4 nM | 12.9 | 819 nM | Cc1ccsc1-c1nc2cc(C(=O)N(Cc3ccccc3)C(C)C)cc(N)n2n1 [Example 144, 5-Amino-2-(3-methyl-thiophen-2-yl)-[1,2,4]triazolo[1,5-a]pyridine-7-carboxylic acid benzyl-isopropyl-amide] |
| 26 nM | 4.1 | 106 nM | CCCCNC(=O)c1cc(N)n2nc(-c3ccccc3)nc2c1 [Example 145, 5-Amino-2-phenyl-[1,2,4]triazolo[1,5-a]pyridine-7-carboxylic acid butylamide] |
| 130 nM | 15.0 | 1960 nM | CCN(CC)C(=O)c1cc(N)n2nc(-c3ccccc3)nc2c1 [Example 146, 5-Amino-2-phenyl-[1,2,4]triazolo[1,5-a]pyridine-7-carboxylic acid diethylamide] |
| 140 nM | 3.2 | 453 nM | Nc1cc(C(=O)NC2CCCCC2)cc2nc(-c3ccccc3)nn12 [Example 147, 5-Amino-2-phenyl-[1,2,4]triazolo[1,5-a]pyridine-7-carboxylic acid cyclohexylamide] |
| 148 nM | 8.1 | 1200 nM | CN(C(=O)c1cc(N)n2nc(-c3ccccc3)nc2c1)C1CCCCC1 [Example 148, 5-Amino-2-phenyl-[1,2,4]triazolo[1,5-a]pyridine-7-carboxylic acid cyclohexyl-methyl-amide] |
| 57.4 nM | 1.7 | 98.1 nM | Nc1cc(C(=O)NC2CCc3ccccc32)cc2nc(-c3ccccc3)nn12 (stereo not drawn) [Example 149, 5-Amino-2-phenyl-[1,2,4]triazolo[1,5-a]pyridine-7-carboxylic acid indan-1-ylamide] |
| 82.3 nM | 8.6 | 711 nM | Nc1cc(C(=O)N2CCCC2)cc2nc(-c3ccccc3)nn12 [Example 150, (5-Amino-2-phenyl-[1,2,4]triazolo[1,5-a]pyridin-7-yl)-pyrrolidin-1-yl-methanone] |
| 85.5 nM | 10.8 | 928 nM | Nc1cc(C(=O)N2CCCCC2)cc2nc(-c3ccccc3)nn12 [Example 151, (5-Amino-2-phenyl-[1,2,4]triazolo[1,5-a]pyridin-7-yl)-piperidin-1-yl-methanone] |
| 32.8 nM | 11.2 | 367 nM | CN(Cc1ccccc1)C(=O)c1cc(N)n2nc(-c3ccccc3)nc2c1 [Example 152, 5-Amino-2-phenyl-[1,2,4]triazolo[1,5-a]pyridine-7-carboxylic acid benzyl-methyl-amide] |
| 301 nM | 16.0 | 4800 nM | CCN(CC)C(=O)c1cc(N)n2nc(-c3ccoc3)nc2c1 [Example 153, 5-Amino-2-furan-3-yl-[1,2,4]triazolo[1,5-a]pyridine-7-carboxylic acid diethylamide] |
| 88.1 nM | 13.3 | 1180 nM | Nc1cc(C(=O)NC2CCCCC2)cc2nc(-c3ccoc3)nn12 [Example 154, 5-Amino-2-furan-3-yl-[1,2,4]triazolo[1,5-a]pyridine-7-carboxylic acid cyclohexylamide] |
| 301 nM | 19.4 | 5850 nM | Nc1cc(C(=O)N2CCCCC2)cc2nc(-c3ccoc3)nn12 [Example 155, (5-Amino-2-furan-3-yl-[1,2,4]triazolo[1,5-a]pyridin-7-yl)-piperidin-1-yl-methanone] |
| 17.1 nM | 13.3 | 228 nM | Nc1cc(C(=O)NCc2ccccc2Cl)cc2nc(-c3ccoc3)nn12 [Example 156, 5-Amino-2-furan-3-yl-[1,2,4]triazolo[1,5-a]pyridine-7-carboxylic acid 2-chloro-benzylamide] |
| 18 nM | 12.8 | 231 nM | Nc1cc(C(=O)NCc2ccccc2Br)cc2nc(-c3ccoc3)nn12 [Example 157, 5-Amino-2-furan-3-yl-[1,2,4]triazolo[1,5-a]pyridine-7-carboxylic acid 2-bromo-benzylamide] |
| 87.5 nM | 3.0 | 258 nM | CCCCNC(=O)c1cc(N)n2nc(-c3ccccc3O)nc2c1 [Example 158, 5-Amino-2-(2-hydroxy-phenyl)-[1,2,4]triazolo[1,5-a]pyridine-7-carboxylic acid butylamide] |

| Ki [1] | selectivity (A1/A2a) [1] | Ki (HA1 adenosine receptor) | Structure (SMILES) |
| --- | --- | --- | --- |
| 105 nM | 2.7 | 279 nM | Nc1cc(C(=O)NCc2ccccc2Cl)cc2nc(-c3ccccc3O)nn12 [Example 159, 5-Amino-2-(2-hydroxy-phenyl)-[1,2,4]triazolo[1,5-a]pyridine-7-carboxylic acid 2-chloro-benzylamide] |
| 126 nM | 1.1 | 139 nM | Nc1cc(C(=O)NCc2ccccc2Br)cc2nc(-c3ccccc3O)nn12 [Example 160, 5-Amino-2-(2-hydroxy-phenyl)-[1,2,4]triazolo[1,5-a]pyridine-7-carboxylic acid 2-bromo-benzylamide] |
| 28 nM | 5.7 | 161 nM | CCCCNC(=O)c1cc(N)n2nc(-c3cccs3)nc2c1 [Example 161, 5-Amino-2-thiophen-2-yl-[1,2,4]triazolo[1,5-a]pyridine-7-carboxylic acid butylamide] |
| 61.4 nM | 4.9 | 301 nM | Nc1cc(C(=O)NC2CCCCC2)cc2nc(-c3cccs3)nn12 [Example 162, 5-Amino-2-thiophen-2-yl-[1,2,4]triazolo[1,5-a]pyridine-7-carboxylic acid cyclohexylamide] |
| 31.1 nM | 4.0 | 125 nM | Nc1cc(C(=O)NCc2ccccc2Cl)cc2nc(-c3cccs3)nn12 [Example 163, 5-Amino-2-thiophen-2-yl-[1,2,4]triazolo[1,5-a]pyridine-7-carboxylic acid 2-chloro-benzylamide] |
| 25.5 nM | 4.4 | 111 nM | Nc1cc(C(=O)NCc2ccccc2Br)cc2nc(-c3cccs3)nn12 [Example 164, 5-Amino-2-thiophen-2-yl-[1,2,4]triazolo[1,5-a]pyridine-7-carboxylic acid 2-bromo-benzylamide] |
| 88.8 nM | 8.7 | 770 nM | Nc1cc(C(=O)NC2CCCCC2)cc2nc(-c3ccc(Br)o3)nn12 [Example 165, 5-Amino-2-(5-bromo-furan-2-yl)-[1,2,4]triazolo[1,5-a]pyridine-7-carboxylic acid cyclohexylamide] |
| 39.7 nM | 5.1 | 201 nM | Nc1cc(C(=O)NCc2ccccc2)cc2nc(-c3ccc(Br)o3)nn12 [Example 166, 5-Amino-2-(5-bromo-furan-2-yl)-[1,2,4]triazolo[1,5-a]pyridine-7-carboxylic acid benzylamide] |
| 42.7 nM | 4.6 | 196 nM | Nc1cc(C(=O)NCc2ccccc2Br)cc2nc(-c3ccc(Br)o3)nn12 [Example 167] |
| 18.4 nM | 2.6 | 47.2 nM | CCCCNC(=O)c1cc(N)n2nc(-c3cc(Br)co3)nc2c1 [Example 168, 5-Amino-2-(4-bromo-furan-2-yl)-[1,2,4]triazolo[1,5-a]pyridine-7-carboxylic acid butylamide] |
| 119 nM | 3.4 | 407 nM | CCN(CC)C(=O)c1cc(N)n2nc(-c3cc(Br)co3)nc2c1 [Example 169, 5-Amino-2-(4-bromo-furan-2-yl)-[1,2,4]triazolo[1,5-a]pyridine-7-carboxylic acid diethylamide] |
| 33.8 nM | 4.5 | 152 nM | Nc1cc(C(=O)N2CCCC2)cc2nc(-c3cc(Br)co3)nn12 [Example 170, [5-Amino-2-(4-bromo-furan-2-yl)-[1,2,4]triazolo[1,5-a]pyridin-7-yl]-pyrrolidin-1-yl-methanone] |
| 64.9 nM | 4.3 | 276 nM | Nc1cc(C(=O)N2CCCCC2)cc2nc(-c3cc(Br)co3)nn12 [Example 171, [5-Amino-2-(4-bromo-furan-2-yl)-[1,2,4]triazolo[1,5-a]pyridin-7-yl]-piperidin-1-yl-methanone] |
| 29.7 nM | 0.8 | 24.7 nM | Nc1cc(C(=O)NCc2ccccc2)cc2nc(-c3cc(Br)co3)nn12 [Example 172, 5-Amino-2-(4-bromo-furan-2-yl)-[1,2,4]triazolo[1,5-a]pyridine-7-carboxylic acid benzylamide] |
| 44.4 nM | 1.7 | 73.6 nM | CC(C)N(Cc1ccccc1)C(=O)c1cc(N)n2nc(-c3cc(Br)co3)nc2c1 [Example 173, 5-Amino-2-(4-bromo-furan-2-yl)-[1,2,4]triazolo[1,5-a]pyridine-7-carboxylic acid benzyl-isopropyl-amide] |
